Source: patent US10758534B2 (Vertex Pharmaceuticals Incorporated, priority 2014, dated 2020)

Molecular target: T1, F508del (Homo sapiens, UniProt P13569, DEL508-508)
T1 construct: expressed in transfected cells
Experiment: Protocol 1: membrane potential optical assay (FLIPR III, voltage sensing dye), identification of potentiator compounds
Format: cell-based
Conditions: Table 3, compounds of Table 1
Procedure, shortened: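 Read-out: change in voltage-sensing dye fluorescence (FLIPR III) as a measure of F508del conductance. Temperature-corrected (27° C, 24 hrs) NIH 3T3 cells expressing F508del are pretreated with potentiators, dye-loaded, then stimulated with forskolin under a chloride ion gradient using chloride-free gluconate bath.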

T1 sequence (P13569 with tags, fused parts or gaps DEL508-508): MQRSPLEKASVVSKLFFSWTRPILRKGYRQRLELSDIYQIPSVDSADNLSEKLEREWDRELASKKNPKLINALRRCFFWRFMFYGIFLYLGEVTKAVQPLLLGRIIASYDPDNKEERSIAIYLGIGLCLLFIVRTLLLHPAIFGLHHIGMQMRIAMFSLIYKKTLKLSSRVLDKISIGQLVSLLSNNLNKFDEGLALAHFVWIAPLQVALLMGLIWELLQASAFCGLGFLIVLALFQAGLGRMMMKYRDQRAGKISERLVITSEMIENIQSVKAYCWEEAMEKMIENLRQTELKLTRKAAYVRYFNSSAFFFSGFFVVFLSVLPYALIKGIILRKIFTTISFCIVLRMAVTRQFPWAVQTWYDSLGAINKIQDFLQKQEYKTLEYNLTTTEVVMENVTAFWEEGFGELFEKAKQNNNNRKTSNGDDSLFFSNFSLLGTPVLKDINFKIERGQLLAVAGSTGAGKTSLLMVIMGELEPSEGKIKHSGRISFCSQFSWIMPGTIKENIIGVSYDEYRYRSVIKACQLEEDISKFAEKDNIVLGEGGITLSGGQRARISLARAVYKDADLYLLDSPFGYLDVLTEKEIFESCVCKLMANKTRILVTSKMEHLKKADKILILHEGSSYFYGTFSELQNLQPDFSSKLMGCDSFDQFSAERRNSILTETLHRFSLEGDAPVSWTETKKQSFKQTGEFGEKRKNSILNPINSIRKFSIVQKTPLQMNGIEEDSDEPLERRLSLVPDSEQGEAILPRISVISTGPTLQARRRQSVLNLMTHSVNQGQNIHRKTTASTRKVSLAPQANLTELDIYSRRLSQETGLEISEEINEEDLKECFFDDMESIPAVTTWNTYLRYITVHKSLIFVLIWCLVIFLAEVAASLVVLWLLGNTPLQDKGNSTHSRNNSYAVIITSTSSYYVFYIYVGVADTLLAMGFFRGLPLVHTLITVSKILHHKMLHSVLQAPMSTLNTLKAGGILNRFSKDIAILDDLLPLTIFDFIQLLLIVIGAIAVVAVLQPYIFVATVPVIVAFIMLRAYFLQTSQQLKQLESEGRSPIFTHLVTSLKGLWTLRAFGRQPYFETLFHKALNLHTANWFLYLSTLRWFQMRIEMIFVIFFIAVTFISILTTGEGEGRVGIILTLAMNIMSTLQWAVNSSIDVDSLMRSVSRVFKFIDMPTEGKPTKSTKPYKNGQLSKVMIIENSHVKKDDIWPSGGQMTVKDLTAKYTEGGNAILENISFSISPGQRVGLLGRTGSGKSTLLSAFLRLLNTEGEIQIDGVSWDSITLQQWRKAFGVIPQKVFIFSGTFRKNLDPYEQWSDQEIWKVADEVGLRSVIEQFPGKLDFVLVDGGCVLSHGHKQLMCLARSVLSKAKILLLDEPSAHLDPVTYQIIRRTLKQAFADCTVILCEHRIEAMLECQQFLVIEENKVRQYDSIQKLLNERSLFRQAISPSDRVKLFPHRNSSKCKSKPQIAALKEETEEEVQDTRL

Compound | EC30
C[C@@H]1CC[C@H](C)N1c1nc(-c2cc(F)cc(OCC3CCC3)c2)ccc1C(=O)NS(=O)(=O)c1ccc[nH]c1=O [Compound 922, 6-[3-(cyclobutylmethoxy)-5-fluoro-phenyl]-2-[(2S,5R)-2,5-dimethylpyrrolidin-1-yl]-N-[(2-oxo-1H-pyridin-3-yl)sulfonyl]pyridine-3-carboxamide] | +++ (“+++” means <3 uM)
CC(C)COc1cc(F)cc(-c2ccc(C(=O)NS(=O)(=O)c3ccn[nH]3)c(N3CCCC(C)C3C)n2)c1 (centres unmarked) [Compound 1169, 2-(2,3-dimethyl-1-piperidyl)-6-(3-fluoro-5-isobutoxy-phenyl)-N-(1H-pyrazol-5-ylsulfonyl)pyridine-3-carboxamide] | ++ (“++” means between 3 uM and 10 uM)
CC(C)COc1cc(F)cc(-c2ccc(C(=O)NS(=O)(=O)c3cccc(N)n3)c(OC(C)c3ccc(F)cc3)n2)c1 (centres unmarked) [Compound 867, N-[(6-amino-2-pyridyl)sulfonyl]-6-(3-fluoro-5-isobutoxy-phenyl)-2-[1-(4-fluorophenyl)ethoxy]pyridine-3-carboxamide] | +++ (“+++” means <3 uM)
CC(C)COc1cc(F)cc(-c2ccc(C(=O)NS(=O)(=O)c3cccc(N)n3)c(OCCCCc3cccnc3)n2)c1 [Compound 1690, N-[(6-amino-2-pyridyl)sulfonyl]-6-(3-fluoro-5-isobutoxy-phenyl)-2-[4-(3-pyridyl)butoxy]pyridine-3-carboxamide] | +++ (“+++” means <3 uM)
CC(C)COc1cc(F)cc(-c2ccc(C(=O)NS(=O)(=O)N3CC[C@@H](N)C3)c(N3C[C@@H](C)CC3(C)C)n2)c1 [Compound 1360, N-[(3R)-3-aminopyrrolidin-1-yl]sulfonyl-6-(3-fluoro-5-isobutoxy-phenyl)-2-[(4S)-2,2,4-trimethylpyrrolidin-1-yl]pyridine-3-carboxamide] | +++ (“+++” means <3 uM)

Now from value to compound:

EC30 | Compound
+++ (“+++” means <3 uM) | COc1ccc(-c2ccc(C(=O)NS(=O)(=O)c3cccnc3N)c(N3C[C@@H](C)CC3(C)C)n2)cc1C [Compound 1747, N-[(2-amino-3-pyridyl)sulfonyl]-6-(4-methoxy-3-methyl-phenyl)-2-[(4S)-2,2,4-trimethylpyrrolidin-1-yl]pyridine-3-carboxamide]
+++ (“+++” means <3 uM) | C[C@@H]1CN(c2nc(C3CCCCO3)ccc2C(=O)NS(=O)(=O)c2ccccc2)C(C)(C)C1 (stereo partly drawn) [Compound 1868, N-(benzenesulfonyl)-6-tetrahydropyran-2-yl-2-[(4S)-2,2,4-trimethylpyrrolidin-1-yl]pyridine-3-carboxamide]
+ (“+” means greater than 10 uM) | Cc1ccc(F)c(-c2nc(C(C)(C)C)ccc2C(=O)NS(=O)(=O)c2cccc(N)c2)c1 [Compound 1350, N-(3-aminophenyl)sulfonyl-6-tert-butyl-2-(2-fluoro-5-methyl-phenyl)pyridine-3-carboxamide]
+++ (“+++” means <3 uM) | C[C@@H]1CN(c2nc(C(C)(C)C)c(C3=CC4CCC3C4)cc2C(=O)NS(=O)(=O)c2cccc(N)n2)C(C)(C)C1 (stereo partly drawn) [Compound 1577, N-[(6-amino-2-pyridyl)sulfonyl]-5-(3-bicyclo[2.2.1]hept-2-enyl)-6-tert-butyl-2-[(4S)-2,2,4-trimethylpyrrolidin-1-yl]pyridine-3-carboxamide]
+++ (“+++” means <3 uM) | Cc1cc(C)c(Oc2nc(N3[C@H](C)CC[C@@H]3C)c(C)cc2C(=O)NS(=O)(=O)c2cccc(N)n2)c(C)c1 [Compound 1589, N-[(6-amino-2-pyridyl)sulfonyl]-6-[(2R,5S)-2,5-dimethylpyrrolidin-1-yl]-5-methyl-2-(2,4,6-trimethylphenoxy)pyridine-3-carboxamide]
++ (“++” means between 3 uM and 10 uM) | CC1CN(c2ncccc2C(=O)NS(=O)(=O)c2cccc(OCC3CCCCO3)n2)C(C)(C)C1 (centres unmarked) [Compound 1939, N—[[6-(tetrahydropyran-2-ylmethoxy)-2-pyridyl]sulfonyl]-2-(2,2,4-trimethylpyrrolidin-1-yl)pyridine-3-carboxamide]
